Laboratory results reported in PMC7714489 (Journal of medicinal chemistry, 2015).

Legend:
Type in all cases: cell-based
[1] = tested on: PC3 cells (a human prostate cancer cell line); assay: Toxicity in PC3 cells; conditions: 100 μM; data not shown
[2] = tested on: cellular GAPDH levels; assay: Effect on cellular GAPDH levels; conditions: 100 μM; data not shown
[3] = tested on: thymidine uptake; assay: Effect on thymidine uptake; conditions: 100 μM; data not shown
[4] = tested on: subgenomic HCV replicon in Huh-7 cells; assay: HCV subgenomic replicon assay in Huh-7 cells; conditions: Huh-7 replicon
[5] = tested on: HepG2 cells; assay: Lactate production assay; conditions: 10 μM, HepG2, 14 days

Row | Compound | toxicity in PC3 cells [1] | effect on cellular GAPDH levels [2] | effect on thymidine uptake [3] | inhibition of HCV RNA replication (in words) [4] | cell death in lactic acid experiment [5]
1 | CCOC(=O)CCc1ccccc1O[P@@](=O)(N[C@@H](C)C(=O)OCC)OC[C@H]1O[C@@H](n2cnc3c(N)nc(N)nc32)[C@](C)(O)C1O (stereo in doubt) [15b(Rp), Ethyl 3-(2-(((R)-(((2R,3R,4R,5R)-5-(2,6-Diamino-9H-purin-9-yl)-3,4-dihydroxy-4-methyltetrahydrofuran-2-yl)methoxy)(((S)-1-ethoxy-1-oxopropan-2-yl)amino)phosphoryl)oxy)phenyl)-propanoate] | did not observe any toxicity | did not observe | did not observe |  | 
2 | CCOC(=O)CCc1ccccc1OP(=O)(OC[C@H]1O[C@@H](n2cnc3c(N)nc(N)nc32)[C@](C)(O)[C@@H]1O)Oc1ccccc1CCC(=O)OCC [compound 18] |  |  |  | inactive | 
3 | COc1nc(N)nc2c1ncn2[C@@H]1O[C@H](COP(=O)(N[C@@H](C)C(=O)OCC(C)(C)C)Oc2cccc3ccccc23)[C@@H](O)[C@@]1(C)O (stereo partly drawn) [compound 1, reference compound] |  |  |  | nanomolar potency | excessive cell death
